One block for each molecule: values may come before it. Positions of bridges follow the written chain, without caps; N, C: chain ends. Non-standard residues stand in square brackets, D forms with d. Residues, ends and D or L forms follow the SMILES beside them. *: point of attachment. X1 = CN(CCNC(=O)CCOCCOCC[N+](C)(C)CCNC(=O)COCCOCCNC(=O)COCCOCCNC(=O)CC[C@H](NC(=O)CCCCCCCCCCCCCCC(=O)O)C(=O)O)*; Trp(7-Me) = Cc1cccc2c(C[C@H](N)C(=O)O)c[nH]c12; 2Nal = N[C@@H](Cc1ccc2ccccc2c1)C(=O)O; AEF = NCCOc1ccc(C[C@H](N)C(=O)O)cc1; 3Pal = N[C@@H](Cc1cccnc1)C(=O)O; Pen = CC(C)(S)[C@H](N)C(=O)O; Thp = NC1(C(=O)O)CCOCC1; Sar = CNCC(=O)O
Key:
[1] = test system: activation of STAT3 phosphorylation by hIL23 in DB cells; experiment: Blocking the activation of STAT3 phosphorylation by hIL23 in DB cells (p-STAT3 ELISA); format: cell-based, Human; settings: DB cells stimulated by rhIL-23 0.5 nM, half an hour; read-out: pStat3 IC50
Method: To determine the inhibitory activity of the compounds of the present disclosure on the activation of STAT3 phosphorylation by hIL23 in DB cells
The compounds produced above were added to DB (ATCC Cat #CRL-2289) cells to inhibit the signal transduction of rhIL-23 cytokine. The screening of compounds was carried out by a multi-well plate (suitable for ELISA assay). Generally, in the presence of some of the above compounds of the present disclosure, 6.25×10^6 cells/ml of DB cells were stimulated by rhIL-23 (0.5 nM, R&D SYSTEMS) in RPMI medium (Invitrogen) containing 10% of FBS, and after half an hour, lysis was carried out on ice using 50 μL of 2×lysis buffer (CST). The content of p-STAT3 in the lysate was determined by PathScan Phospho-Stat3 (Tyr705) Sandwich ELISA Kit (CST Cat #7300C), so as to calculate the activity of the compounds of the present disclosure in blocking rhIL23 signal transduction in DB cells.
The inhibition rate was calculated as follows: […]
By using log (inhibitor) vs. response—Variable slope (four parameters) in Graphpad, the data of ELISA experiment results were subjected to non-linear regression fitting to fit a curve and obtain the IC50 value.

[2] = test system: IL23-induced rat otitis model; experiment: In vivo pharmacodynamics in IL23-induced rat otitis model (ear thickening); parameters: species or system SD rats; settings: 10 mg/kg, gavage
Text: To evaluate the in vivo efficacy of the compounds in an IL23-induced rat otitis model.
SD rats, 6-8 weeks old, male, purchased from Jiangsu GemPharmatech Co., Ltd.
• a. […]

[3] = Pharmacokinetic determination in rats (IV); settings: male, SD, rat, plasma, 1 mg/kg
Method: (§11) SD rats were used as test animals to study the pharmacokinetic behavior of the compounds of the examples in the rats (plasma) after oral or IV administration.
Preparation of intravenous drug: PBS
(§12) The compounds of the examples were weighed and dissolved in this solution, vortexed, ultrasonicated for 5 min, and filtered through a 0.22 μm filter membrane to obtain colorless clear solutions with a concentration of 0.2 mg/mL.
(§13) 3 SD rats/group, male were fasted overnight and then respectively administered IV at a dose of 1 mg/kg and a volume of 5 mL/kg.
(§14) • Before administration and at 0.083 h, 0.25 h, 0.5 h, 1.0 h, 2.0 h, 4.0 h, 6.0 h, 8.0 h, and 24.0 h after administration (IV), 0.2 mL of blood was collected from the jugular vein, placed in an EDTA-2K test tube, and centrifuged at 6000 rpm for 6 min at 4° C. to separate plasma, which was stored at −20° C.; and the rats were fed 4 h after administration.
(§15) 1) Acetonitrile (200 μL) was added to the plasma sample (50 μL) for precipitation, and the mixture was mixed and centrifuged at 4500 rpm for 15 min.
(§16) 2) The treated supernatant solution was taken and subjected to LC/MS/MS to analyze the concentrations of the test compounds. LC/MS/MS analysis instrument: AB Sciex Triple Quad 6500+.
(§17) • Liquid phase conditions: Shimadzu LC-30AD pump • Chromatographic column: HALO 90A PFP 2.7 μm 2.1×30 mm, mobile phase: liquid A: 5% acetonitrile aqueous solution (0.1% formic acid), and liquid B: an aqueous solution of 95% acetonitrile (0.1% formic acid) • Flow rate: 0.6 mL/min • Elution time: 0-2.0 min, the eluent was as follows:
(§18) The main pharmacokinetic parameters were calculated using WinNonlin 8.1.

[4] = Stability in plasma (human); format: in vitro ADME; settings: human, plasma
Method: (§1) To study the stability of the compounds of the examples in the plasmas of mice, rats, dogs and humans.
(§2) Preparation of plasma: Animal or human whole blood was collected, then put into a test tube containing an anticoagulant, and centrifuged at 3500 rpm for 10 min, and the upper pale yellow plasma was collected; • working solution of 10 μM test compound: a stock solution was prepared with DMSO, and the working solution was prepared with 100 mM phosphate buffer; • working solution of 10 μM positive control: • procaine: 2.36 mg of procaine was weighed and diluted into a 10 mM stock solution with 1 mL of DMSO. 10 μL of the 10 mM stock solution was pipetted into 1 mL of 100 mM phosphate buffer, such that the final concentration was 100 μM; and • enalapril: 4.93 mg of enalapril was weighed and diluted into a 10 mM stock solution with 1 mL of DMSO; and 10 μL of the 10 mM stock solution was pipetted into 1 mL of 100 mM phosphate buffer, such that the final concentration was 100 μM.
(§3) In a 96-well plate, 285 μL of plasma and 15 μL of 10 μM compound (test compound, and positive control) were successively added and incubated at 37° C.
(§4) 40 μL was taken at 0, 15, 30, 60, 90, and 120 min (sampling points could be fine-tuned), respectively, and 160 μL of an acetonitrile stop solution containing an internal standard was added.
(§5) After centrifugation (3500 rpm, 10 min), 50 μL of the supernatant was taken, diluted by adding 50 μL of DDH2O, and then injected for LC-MS/MS.
(§6) • Instrument: Shimadzu LC-20 AD • Chromatographic column: Phenomenex Gemiu® C18 (50*4.6 mm, 5 μm particle size) • Mobile phase: A: acetonitrile, B: 0.1% formic acid solution • Elution gradient: […]: 5% A→95% A, 2.0-2.1 min: […] • Flow rate: 0.8 mL/min • Run time: 5.0 min • Injection volume: 5 μL
(§7) • Instrument: API4000 liquid chromatography mass spectrometer, AB, US • Ion source: electrospray ionization source (ESI) • Drying gas: N2, temperature 500° C. • Electrospray voltage: 5500V • Detection mode: positive ion detection • Scan mode: multi reaction monitoring (MRM) mode • Scan time: 0.1 s
(§8) All calculations were carried out using Microsoft Excel. The peak area ratio was determined by an extracted ion chromatogram.
(§9) The residual percentage of the compound at each time point was calculated by the following equation: Residual percentage at t hours (%)=peak area ratio at t hours/peak area ratio at 0 hour×100%, in which the peak area ratio at t hr was the peak area ratio of the […] at t min; and • the slope value k was determined by linear regression on the natural logarithm of the curve of the residual percentage of the parent drug versus the incubation time.
(§10) In vitro half-life (in vitro t1/2) was determined by the slope value: […]

in vitro = in vitro ADME; settings: plasma
Method: as §1, §2, §3, §4, §5, §6, §7, §8, §9, §10

in vivo = settings: male, SD, rat, iv, 1 mg/kg
Method: as §11
Preparation of intravenous drug: PBS
as §12, §13, §14, §15, §16, §17, §18

[5] = Pharmacokinetic determination in beagle dogs (IV); settings: male, dog, plasma, 0.2 mg/kg
Method: Beagle dogs were used as test animals to study the pharmacokinetic behavior of the compounds of the examples in the rats (plasma) after IV administration.
3 beagle dogs/group, male, from Yizheng Anlimao Biotechnology Co., Ltd.
The compounds of the examples were weighed and dissolved in this solution, vortexed, ultrasonicated for 5 min, and filtered through a 0.22 μm filter membrane to obtain colorless clear solutions with a concentration of 0.1 mg/mL.
3 beagle dogs/group, male were fasted overnight and then respectively administered IV at a dose of 0.2 mg/kg and a volume of 2 mL/kg.
1) Acetonitrile (200 μL) was added to the plasma sample (50 L) for precipitation, and the mixture was mixed and centrifuged at 4500 rpm for 15 min.
as §16
Premier Peptide CSH C18 130A 1.7 μm 2.1*100 mm Column, mobile phase: liquid A: 5% acetonitrile aqueous solution (0.1% formic acid), and liquid B: an aqueous solution of 95% acetonitrile (0.1% formic acid) • Flow rate: 0.6 mL/min • Elution time: 0-2.0 min, the eluent was as follows:
as §18

SMILES: CC(=O)NCCCC[C@@H]1NC(=O)[C@H](Cc2c[nH]c3c(C)cccc23)NC(=O)[C@H]([C@@H](C)O)NC(=O)[C@H](CC(N)=O)NC(=O)[C@@H](NC(C)=O)C(C)(C)SSC(C)(C)[C@@H](C(=O)N[C@@H](Cc2ccc(OCCN)cc2)C(=O)N[C@@H](Cc2ccc3ccccc3c2)C(=O)NC2(C(=O)N[C@@H](CCC(=O)O)C(=O)N[C@@H](CC(N)=O)C(=O)N[C@@H](Cc3cccnc3)C(=O)N(C)CCNC(=O)CCOCCOCC[N+](C)(C)CCNC(=O)COCCOCCNC(=O)COCCOCCNC(=O)CC[C@H](NC(=O)CCCCCCCCCCCCCCC(=O)O)C(=O)O)CCOCC2)NC1=O [Example 1] (Ac-[Pen]NT[Trp(7-Me)]K(Ac)[Pen][AEF][2Nal][Thp]EN[3Pal]-X1; disulfide 1-6)
IC50 [1]: 0.025 nM
Inhibition rate on Day 4 (ear thickening) ([2]; QD): 51.22%
AUC(0-inf) [3]: 46700 ng·h/mL
AUC(0-t) [3]: 45400 ng·h/mL
C0 [3]: 10300 ng/mL
MRT [3]: 6.1 h
clearance [3]: 0.35 mL/min/kg
half-life at 0.5 μM [4]: 64.6 h
remaining at 4 h, 0.5 µM [4]: 94.3%
half-life at 0.5 μM (in vitro; dog): 148 h
remaining at 4 h, 0.5 µM (in vitro; dog): 99.7%
half-life at 0.5 μM (in vitro; mouse): 32 h
remaining at 4 h, 0.5 µM (in vitro; mouse): 93.8%
half-life at 0.5 μM (in vitro; rat): 75.7 h
remaining at 4 h, 0.5 µM (in vitro; rat): 98.7%
half-life (in vivo): 4.9 h

AUC(0-inf) [3]: 2670 ng·h/mL
AUC(0-t) [3]: 2620 ng·h/mL
C0 [3]: 4290 ng/mL
MRT [3]: 0.9 h
clearance [3]: 6.2 mL/min/kg
half-life [3]: 0.7 h
AUC(0-inf) [5]: 2030 ng·h/mL
AUC(0-t) [5]: 2020 ng·h/mL
C0 [5]: 1250 ng/mL
MRT [5]: 3.1 h
clearance [5]: 1.68 mL/min/kg
half-life [5]: 4.1 h
SMILES: CC(=O)NCCCC[C@@H]1NC(=O)[C@H](Cc2c[nH]c3c(C)cccc23)NC(=O)[C@H]([C@@H](C)O)NC(=O)[C@H](CC(N)=O)NC(=O)[C@@H](NC(C)=O)C(C)(C)SSC(C)(C)[C@@H](C(=O)N[C@@H](Cc2ccc(OCCN)cc2)C(=O)N[C@@H](Cc2ccc3ccccc3c2)C(=O)NC2(C(=O)N[C@@H](CCC(=O)O)C(=O)N[C@@H](CC(N)=O)C(=O)N[C@@H](Cc3cccnc3)C(=O)N(C)CC(N)=O)CCOCC2)NC1=O [PN-235, reference compound] (Ac-[Pen]NT[Trp(7-Me)]K(Ac)[Pen][AEF][2Nal][Thp]EN[3Pal][Sar]-NH2; disulfide 1-6 (inferred); N-terminus and C-terminus assumed)
Inhibition rate on Day 4 (ear thickening) ([2]; BID): 55.35%

Reference: patent US20260193294A1, “POLYPEPTIDE INHIBITOR, AND PREPARATION METHOD THEREFOR AND USE THEREOF” (SHANGHAI HANSOH BIOMEDICAL CO., LTD., priority 2022, published 2026)
